From US20170239239A1, “Method for Inducing a Sustained Immune Response” (Immune Therapeutics Inc., priority 2016, published 2017)

Assays:
[1] = tested on: advanced pancreatic cancer; details: historical controls; cited from earlier work
IBS patients = assay: Open-label study of PTI-901 in 42 IBS patients; type: in vivo, human
Experimental: Forty-two IBS patients participated in an open-label study. Participants received 0.5 mg PTI-901/day for 4 weeks and were evaluated during baseline, during treatment, and at 4-week follow-up. Patients recorded degree of abdominal pain, stool urgency, consistency, and frequency. Primary outcomes were number of pain-free days and overall symptom relief, evaluated by a global assessment score. Data were analyzed per protocol. Global assessment improved in 76% of 42 patients. During treatment, the mean weekly number of pain-free days increased from 0.5+/−1 to 1.25+/−2.14 (P=0.011).

| Structure (SMILES) | Clinical benefit response [1] [%] | Global assessment improved (IBS patients; 0.5 mg/day for 4 weeks, of 42 patients) [%] | mean weekly number of pain-free days (IBS patients; during treatment, from 0.5+/−1, P=0.011) | adverse reactions (IBS patients; human, in vivo) |
| --- | --- | --- | --- | --- |
| Nc1ccn([C@@H]2O[C@H](CO)[C@@H](O)C2(F)F)c(=O)n1 [gemcitabine] | 23.8 |  |  |  |
| O=c1[nH]cc(F)c(=O)[nH]1 [5-fluorouracil (5-FU), 5-fluorouracil] | 4.8 |  |  |  |
| Cl.O=C1CC[C@@]2(O)[C@H]3Cc4ccc(O)c5c4[C@@]2(CCN3CC2CC2)[C@H]1O5 [PTI-901] |  | 76 | 1.25+/−2.14 | no significant adverse reactions |
